The target of series [1] is T1, human MIF (Homo sapiens (Human), UniProt P14174). Kind of series: X-ray crystallography of complexes with human MIF. The series is classed as binding. The protocol: The solution was centrifuged at 13,000×g to remove precipitated compound and used to set up hanging-drop crystallization experiments. A reservoir of 2.0 M ammonium sulfate, 0.1 M Tris pH 7, and 3% isopropanol was added to the protein solution in a 1:1 ratio and stored at 20° C. Diffraction-quality crystals with a rod morphology grew within two weeks. The crystals were cryo-protected in 25% glycerol, 2.0M ammonium sulfate, 0.1 M Tris pH 7, and 3% isopropanol. Data was collected at the Advanced Photon Source remotely on the NE-CAT 24-ID-E beam line. […] Crystals were obtained by the hanging-drop method at 20° C. A reservoir of 2.2 M ammonium sulfate, 0.1 M Tris pH 7, and 3% isopropanol mixed in a 1:1 ratio with rhMIF (16 mg/mL) was used to produce 2 μL drops. […] Crystals were cryo-protected with 25% glycerol, 2.2 M ammonium sulfate, 0.1 M Tris pH 7, and 3% isopropanol. […] HKL2000 was used to index, integrate, and scale the MIF-3a data set in the […] space group and the MIF-3b in the P212121 space group. Phases were obtained by molecular replacement with PDB file 3U18 using the CCP4 and PHASER programs. Model building was performed in COOT with iterative restrained refinement with REFMAC.

The nature of the next series: Aqueous solubility. The series is classed as physicochemical. As to conditions: aqueous solvent (not further specified), μg compound/mL solvent.
The target in series [2] is T1, human MIF. Kind of series: Inhibition of tautomerase activity of human MIF (HPP substrate). As to conditions: MIF tautomerase, HPP substrate, 50 nM MIF. The series is classed as biochemical.

This is an account of results in patent US10336721B2, “Biaryltriazole inhibitors of macrophage migration inhibitory factor” (YALE UNIVERSITY, priority 2015, dated 2019).

A word on the solubility: it is the concentration that dissolves in the medium under given conditions. A high value points to a readily soluble substance. The Ki is a measure of affinity in units of concentration, obtained from inhibition or displacement.

In brackets after ≈: the same amount, converted by molar mass.

As to `Oc1ccc(-n2cc(-c3ccc4ccccc4n3)nn2)cc1` [Example 3a, 4-(4-(quinolin-2-yl)-1H-1,2,3-triazol-1-yl)phenol], the “binding site from X-ray crystal structure of complex” value (“binding site” for short) at human MIF [1] is “confirm the binding of these inhibitors in the tautomerase active site”. `COCCOc1ccc2nc(-c3cn(-c4ccc(O)cc4)nn3)ccc2c1` [Example 3b, 4-(4-(6-(2-methoxyethoxy)quinolin-2-yl)-1H-1,2,3-triazol-1-yl)phenol]: the “binding site” value at human MIF [1] is reported as “confirm the binding of these inhibitors in the tautomerase active site”.

`Oc1ccc(-n2cc(-c3ccc4cc(OCCOCCN5CCOCC5)ccc4n3)nn2)cc1` [Example 3v, 4-(4-(6-(2-(2-morpholinoethoxy)ethoxy)quinolin-2-yl)-1H-1,2,3-triazol-1-yl)phenol]: the “binding site” value at human MIF [1] was “confirm the binding of these inhibitors in the tautomerase active site”. Consider `NCCOCCOc1ccc2nc(-c3cn(-c4ccc(O)c(F)c4)nn3)ccc2c1` [Example 34, 4-(4-(6-(2-(2-Aminoethoxy)ethoxy)quinolin-2-yl)-1H-1,2,3-triazol-1-yl)-2-fluorophenol], for which the concentration in solution in the series “Aqueous solubility” (solubility) was 9.1 µg/mL (≈ 22.2 µM). The compound `O=C(O)CCCOc1ccc2nc(-c3cn(-c4ccc(O)c(F)c4)nn3)ccc2c1` [Example 43, 4-((2-(1-(3-Fluoro-4-hydroxyphenyl)-1H-1,2,3-triazol-4-yl)quinolin-6-yl)oxy)butanoic acid] showed a solubility in “Aqueous solubility” of 19.2 µg/mL (≈ 47 µM).

For the compound `O=C(O)COCCOc1ccc2nc(-c3cn(-c4ccc(O)c(F)c4)nn3)ccc2c1` [Example 44, 2-(2-((2-(1-(3-Fluoro-4-hydroxyphenyl)-1H-1,2,3-triazol-4-yl)quinolin-6-yl)oxy)ethoxy)acetic acid], in the series “Aqueous solubility”, the solubility was determined as 867 µg/mL (≈ 2040 µM). The compound further had a Ki on human MIF [2] of 45 nM. In “Aqueous solubility”, `O=C(O)COc1ccc2nc(-c3cn(-c4ccc(O)cc4)nn3)ccc2c1` [Example 45] yielded a solubility of 364 µg/mL (≈ 1010 µM).
